Assay results as given in patent US20140093525A1, “COMPOSITIONS AND METHODS OF TREATING OPIOID ADDICTION” (Minneapolis Medical Research Foundation, priority 2012, published 2014).
Like-named read-outs stand apart in the source and are kept apart here. Where a SMILES comes first, the peptide text is derived from it. The star is where a group is joined. X1 = COc1ccc2c3c1OC1C(=NOCC(=O)*)CCC4(O)C(C2)N(C)CCC314

How the values were obtained:
Anti-OXY antibodies = experiment: Competitive ELISA of serum from animals immunized with OXY(Gly)4-KLH, OXY(Gly)4-OVA as coating antigen; format: binding, rat
Procedure: Because plateau values differed, IC50 values for each inhibitor were calculated based on the percentage of inhibition of the optical density of primary antibodies incubated with saline.

[1] = test system: serum antibodies elicited by M-KLH; experiment: Competition ELISA of serum from rats vaccinated with M-KLH
[2] = test system: serum antibodies elicited by OXY-KLH; experiment: Competition ELISA of serum from rats vaccinated with OXY-KLH
Male Holtzman rats [3] = experiment: Example 4: thermal nociception (hot plate) after OXY, naltrexone and OXY-KLH vaccine; format: in vivo, rat
Procedure: Male Holtzman rats immunized once every 3 weeks for a total of 3 injections i.p., with 25 μg immunogen in Freund's adjuvant.
Significant differences existed between saline pretreated control rats and rats receiving NLTX. For pharmacokinetic experiments NLTX dose of 0.003 mg/kg was chosen based on MPE %. *p<0.05.

Male Holtzman rats [4] = experiment: Example 4: drug distribution studies (OXY in serum and brain); format: in vivo, rat; settings: pre-treatment with 0.003 mg/kg NLTX; 2.25 mg/kg OXY s.c.
Procedure: Plasma and brain collected at 33 min after behavioral assessment on the hot plate, and measured using gas chromatography coupled to mass spectrometry.

[5] = relative to OXY, OXY(Gly)4-OVA as ELISA coating antigen

| Molecule | Cross-Reactivity (%) (Anti-OXY antibodies) | IC50 (Anti-OXY antibodies) [µM] | affinity, competition or binding to antibodies (in words) (Anti-OXY antibodies) | relative affinity of antiserum / cross-reactivity (in words) [1] | relative affinity of antiserum / cross-reactivity (in words) [2] | other results |
| --- | --- | --- | --- | --- | --- | --- |
| COc1ccc2c3c1O[C@H]1C(=O)CC[C@H]4[C@@H](C2)N(C)CC[C@]314 [Hydrocodone] | 0.2 | 10 | substantially lower | relatively low IC50 values | relatively low IC50 values | – |
| COc1ccc2c3c1O[C@H]1C(=O)CC[C@@]4(O)[C@@H](C2)N(C)CC[C@]314 [OXY, Oxycodone] | 100 | 0.017 | high affinities | – | – | – |
| COc1ccc2c3c1OC1C(=NOCC(=O)NCC(=O)NCC(=O)NCC(=O)NCC(=O)O)CCC4(O)C(C2)N(C)CCC314 (stereo not drawn) [OXY(Gly)4] (X1-GGGG-OH) | >100 | 0.003 | high affinities | – | – | – |
| tetraglycine [(Gly)4] | – | – | no measurable competition or binding | negligible | negligible cross-reactivity | – |
| CN1CC[C@]23c4c5ccc(O)c4O[C@H]2C(=O)CC[C@@]3(O)[C@H]1C5 [Oxymorphone] | 63 | 0.03 | – | – | high relative affinities | – |
| CN1CC[C@]23c4c5ccc(O)c4O[C@H]2[C@@H](O)C=C[C@H]3[C@H]1C5 [Morphine] | 0.1 | – | substantially lower | – | – | – |
| CCC(=O)C(CC(C)N(C)C)(c1ccccc1)c1ccccc1 (stereo not drawn) [Methadone] | – | – | no measurable binding | – | – | – |
| O=C1CC[C@@]2(O)[C@H]3Cc4ccc(O)c5c4[C@@]2(CCN3CC2CC2)[C@H]1O5 [Naltrexone] | – | – | substantially lower | – | – | IC50 (Anti-OXY antibodies; competitive binding, OXY(Gly)4-OVA as ELISA coating antigen): 5 µM; Cross-Reactivity (%) (Anti-OXY antibodies; [5]): 0.4%; effect on acute behavioral effects of OXY, thermal nociception (in words) (Male Holtzman rats [3]; NLTX 0.001-0.01 mg/kg s.c. 15 min prior to 2.25 mg/kg OXY): dose-dependently blocks; effect on behavioral tolerance to OXY (in words) (Male Holtzman rats [3]; repeated OXY administration): unable to block the effects of tolerance; effect on distribution of OXY in immunized rats (in words) (Male Holtzman rats [4]): does not alter the distribution of OXY |
| CC(=O)Oc1ccc2c3c1O[C@H]1[C@@H](OC(C)=O)C=C[C@H]4[C@@H](C2)N(C)CC[C@@]341 [heroin] | – | – | – | high relative affinities | low relative affinity | – |
| C=CCN1CC[C@]23c4c5ccc(O)c4O[C@H]2C(=O)CC[C@@]3(O)[C@H]1C5 [Naloxone] | – | – | – | – | – | affinity, competition or binding to antibodies (in words) (Anti-OXY antibodies; competitive ELISA, serum from OXY(Gly)4-KLH immunized animals): substantially lower; Cross-Reactivity (%) (Anti-OXY antibodies; [5]): 1.2% |
